Literature values in patent US9528030B1, “Cobalt inhibitor combination for improved dishing” (Cabot Microelectronics Corporation, priority 2015, dated 2016).
Read-outs that look alike come from different tables or passages of the source.

Conditions: n-octanol-water

c1ccc2[nH]nnc2c1 [BTA, benzotriazole]
Azole Compound logP: +1.44 | Azole Compound logP (listed as benzotriazole): 1.44

Nc1nnn[nH]1 [5-Aminotetrazole]
Azole Compound logP: −0.92

Nc1n[nH]c(C(=O)O)n1 [3-Amino-1,2,4-triazole-5-carboxylic acid]
Azole Compound logP: −1.51

O=C(O)Cc1nnn[nH]1 [1H-Tetrazole-5-acetic acid]
Azole Compound logP: −1.54
